Data: patent publication US10022342B2, “Methods and compositions for treating multiple myeloma” (Ohio State Innovation Foundation, priority 2015, dated 2018)

Experiments:
[1] = test system: MM cell lines (MM.1S, U266, RPMI-8226, MM.1R); experiment: Annexin V-PI apoptosis, single-agent AR-42 in MM cell lines; assay type: cell-based, human; conditions: 0.1 μM, 24-hr; all MM cell lines tested
Method: Growth inhibitory and pro-apoptotic properties of AR-42 as a single agent treatment agent have been reported previously in numerous malignancies, including MM. Because of the potent immunomodulatory effects observed with classical pan-HDACi's, immunology-related gene networks altered upon AR-42 treatment in MM cells were investigated using nCounter technology to analyze the effects of AR-42 on the expression of 511 human genes in MM.1S cells following 24-hr treatment with 0.1 μM AR-42.
(§1) CD44 surface expression was analyzed by staining cells with CD44-FITC antibody (BD Biosciences) for 30 min. in the dark, at room temperature. Apoptosis was measured by Annexin V-FITC and Propidium Iodide (PI) (Clontech) staining for 15 min. in the dark, at room temperature and data immediately acquired on a Beckman Coulter FC500 (Beckman Coulter) machine. Analysis was conducted using the FlowJo Software vX.0.7 (Tree Star Inc.). For the multiparametric analysis, the bone marrow samples were stained with CD38-PE (347687; BD Bioscience), CD138-APC (347193; BD Bioscience), CD45-ECD (A07784; Beckman Coulter), CD44-FITC (BD Bioscience) and AnnexinV-FITC (Clontech) for 30 minutes, washed with PBS and immediately analyzed with Gallios cytometer (Beckman Coulter).

CD44 [2] = experiment: CD44 cell surface expression by flow cytometry in MM cell lines; assay type: cell-based, human
Method: The down-regulation of CD44 cell surface expression was also observed by flow cytometry in all MM cell lines tested expressing detectable CD44 levels (FIG. 1D, FIGS. 2E-2F and data not shown).
as §1

CD44 [3] = experiment: CD44 levels in MM.1S subcutaneous xenograft mice (IHC, serum ELISA); assay type: in vivo; conditions: 25 mg/kg, 2 injections
Method: To investigate if AR-42 treatment could affect CD44 expression in vivo, a xenograft MM mouse model was created by injecting 1×10^7 viable cells of MM.1S cell line subcutaneously into the right flank of 12 NOD-SCID mice. […] One group of mice (n=4) received intra-peritoneal injections of 25 mg/kg AR-42, while the second group (n=4) was injected with vehicle control (8% DMSO in PBS; Ctrl). Injections were administered once a day (on Monday and Wednesday). Because the anti-tumor activity of AR-42 has been previously reported in preclinical mouse studies, mice were sacrificed 2 days after the second injection in order to avoid tumor size reduction. […] Tumors were excised and used for CD44 immunohistochemical (IHC) studies, while the serum was collected for ELISA assays. […] Thus, AR-42 down-regulates CD44 directly in vivo.
Blood from xenografted mice (0.6 ml/kg) was collected by retro-orbital bleeding and serum was obtained by centrifuging it at 1500×g for 10 min. […] Finally, 100 […] of Stop Reagent was added and absorbance was read on a spectrophotometer at 450 nm. Soluble CD44 (sCD44) content was calculated based on the readings from the standard and sample dilution factor.
Animal experiments were performed according to OSU institutional guidelines. […] The tumor size was measured once a week using a caliper, and the volume was calculated in cubed millimeters (mm3), using the formula L×W2/2. […]

CD44 [4] = experiment: CD44 expression in whole bone marrow of MM patients by flow cytometry; assay type: cell-based, human; conditions: 24 hrs; all 5 Len-refractory and 2 of the 3 newly diagnosed MM patients
Method: Since MM cell survival is strongly dependent on microenvironment, the effects of AR-42 in combination with Len on MM cell killing in the context of the bone marrow (BM) milieu was examined. Total BM samples obtained from 5 Len-refractory MM (patients 1, 2, 3, 4, and 7) and 3 newly diagnosed MM patients (patients 5, 6, and 8) were treated with AR-42 (0.2 μM) and Len (5 μM) as single agents, and in combination. […] The BM cells from the same patients were used to assess CD44 expression at 24 hrs after AR-42 treatment.
as §1
Mouse data were evaluated by ANOVA, and synergy between AR-42 and Len was tested by interaction contrast. […]

In the case of `CC(C)[C@H](C(=O)Nc1ccc(C(=O)NO)cc1)c1ccccc1` [AR-42, (S)-N-hydroxy-4-(3-methyl-2-phenylbutanamido)benzamide], the “apoptosis by Annexin V-PI staining” value [1] is reported as “without significant increase of apoptosis”, the “CD44 cell surface expression” value (CD44 [2]; all MM cell lines tested expressing detectable CD44) is reported as “down-regulation” and the “CD44 downregulation compared to other HDACi's” value (CD44 [2]; at comparable IC50 concentrations, vs SAHA, LBH589, JQ12) is reported as “greater CD44 downregulation”. For the same compound, the “soluble CD44 in serum (ELISA)” value (CD44 [3]) was “decreased levels”, the “CD44 staining of tumor sections (IHC)” value (CD44 [3]; vs control group) was “significant lower CD44 staining” and the “CD44 expression in whole BM” value (CD44 [4]) was “Downregulation”.
